Laboratory results from PubChem BioAssay (NCI).
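The compound was tested at five concentrations on cells cultured in 96-well plates, with a 48-hour exposure period. The concentration for 50% growth inhibition is given as GI50. TGI is the concentration that stops growth completely.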

Assays:
Test in all cases: inhibition of tumour cell growth, NCI panel, 48 h
786-0 renal = tested on: 786-0 renal
A498 renal = tested on: A498 renal
A549 NSCLC = tested on: A549 NSCLC
ACHN renal = tested on: ACHN renal
BT-549 breast = tested on: BT-549 breast
CAKI-1 renal = tested on: CAKI-1 renal
CCRF-CEM leukemia = tested on: CCRF-CEM leukemia
COLO 205 colon = tested on: COLO 205 colon
DU-145 prostate = tested on: DU-145 prostate
EKVX NSCLC = tested on: EKVX NSCLC
HCC-2998 colon = tested on: HCC-2998 colon
HCT-116 colon = tested on: HCT-116 colon
HCT-15 colon = tested on: HCT-15 colon
HL-60(TB) leukemia = tested on: HL-60(TB) leukemia
HOP-62 NSCLC = tested on: HOP-62 NSCLC
HOP-92 NSCLC = tested on: HOP-92 NSCLC
HS 578T breast = tested on: HS 578T breast
HT29 colon = tested on: HT29 colon
IGROV1 ovarian = tested on: IGROV1 ovarian
K-562 leukemia = tested on: K-562 leukemia
KM12 colon = tested on: KM12 colon
LOX IMVI melanoma = tested on: LOX IMVI melanoma
M14 melanoma = tested on: M14 melanoma
MALME-3M melanoma = tested on: MALME-3M melanoma
MCF7 breast = tested on: MCF7 breast
MDA-MB-231 breast = tested on: MDA-MB-231 breast
MDA-MB-435 = tested on: MDA-MB-435
MDA-MB-468 breast = tested on: MDA-MB-468 breast
MOLT-4 leukemia = tested on: MOLT-4 leukemia
NCI-H226 lung = tested on: NCI-H226 lung
NCI-H23 lung = tested on: NCI-H23 lung
NCI-H460 lung = tested on: NCI-H460 lung
NCI-H522 lung = tested on: NCI-H522 lung
NCI/ADR-RES ovarian = tested on: NCI/ADR-RES ovarian
OVCAR-3 ovarian = tested on: OVCAR-3 ovarian
OVCAR-4 ovarian = tested on: OVCAR-4 ovarian
OVCAR-5 ovarian = tested on: OVCAR-5 ovarian
OVCAR-8 ovarian = tested on: OVCAR-8 ovarian
PC-3 prostate = tested on: PC-3 prostate
RPMI-8226 leukemia = tested on: RPMI-8226 leukemia
RXF 393 renal = tested on: RXF 393 renal
SF-268 CNS = tested on: SF-268 CNS
SF-295 CNS = tested on: SF-295 CNS
SF-539 CNS = tested on: SF-539 CNS
SK-MEL-2 melanoma = tested on: SK-MEL-2 melanoma
SK-MEL-28 melanoma = tested on: SK-MEL-28 melanoma
SK-MEL-5 melanoma = tested on: SK-MEL-5 melanoma
SK-OV-3 ovarian = tested on: SK-OV-3 ovarian
SN12C renal = tested on: SN12C renal
SNB-19 CNS = tested on: SNB-19 CNS
SNB-75 CNS = tested on: SNB-75 CNS
SW-620 colon = tested on: SW-620 colon
T-47D breast = tested on: T-47D breast
TK-10 renal = tested on: TK-10 renal
U251 CNS = tested on: U251 CNS
UACC-257 melanoma = tested on: UACC-257 melanoma
UACC-62 melanoma = tested on: UACC-62 melanoma
UO-31 renal = tested on: UO-31 renal
SR leukemia = tested on: SR leukemia

## C=C1CC[C@@H]2[C@]3(C)COC(c4ccco4)O[C@@H]3CC[C@@]2(C)[C@@H]1C/C=C1/C(=O)OCC1OC(C)=O (some centres undefined)
786-0 renal
  GI50: 18 µM
  TGI: 32.8 µM
A498 renal
  GI50: > 100 µM
  TGI: > 100 µM
A549 NSCLC
  GI50: 28.2 µM
  TGI: > 100 µM
ACHN renal
  GI50: 14.9 µM
  TGI: 28.8 µM
BT-549 breast
  GI50: 15 µM
  TGI: 29.1 µM
CAKI-1 renal
  GI50: 15.8 µM
  TGI: 32.2 µM
CCRF-CEM leukemia
  GI50: 2.56 µM
  TGI: 9.9 µM
COLO 205 colon
  GI50: 16 µM
  TGI: 31.3 µM
DU-145 prostate
  GI50: 15.2 µM
  TGI: 29.5 µM
EKVX NSCLC
  GI50: 14.5 µM
  TGI: 31.4 µM
HCC-2998 colon
  GI50: 16.8 µM
  TGI: 31.4 µM
HCT-116 colon
  GI50: 10.8 µM
  TGI: 26 µM
HCT-15 colon
  GI50: 15.6 µM
  TGI: 38.4 µM
HL-60(TB) leukemia
  GI50: 9.35 µM
  TGI: 85.6 µM
HOP-62 NSCLC
  GI50: 21.8 µM
  TGI: 55.7 µM
HOP-92 NSCLC
  GI50: 12.3 µM
  TGI: 45.2 µM
HS 578T breast
  GI50: 26.1 µM
  TGI: > 100 µM
HT29 colon
  GI50: 13.8 µM
  TGI: 30.7 µM
IGROV1 ovarian
  GI50: 16.5 µM
  TGI: 34.2 µM
K-562 leukemia
  GI50: 5.84 µM
  TGI: > 100 µM
KM12 colon
  GI50: 21.7 µM
  TGI: 68.7 µM
LOX IMVI melanoma
  GI50: 11.8 µM
  TGI: 24.1 µM
M14 melanoma
  GI50: 16.3 µM
  TGI: 34.2 µM
MALME-3M melanoma
  GI50: 14.7 µM
  TGI: 29.3 µM
MCF7 breast
  GI50: 12.4 µM
  TGI: 32.4 µM
MDA-MB-231 breast
  GI50: 15 µM
  TGI: 30.9 µM
MDA-MB-435
  GI50: 15.6 µM
  TGI: 37 µM
MDA-MB-468 breast
  GI50: 13.4 µM
  TGI: 26.6 µM
MOLT-4 leukemia
  GI50: 19.6 µM
  TGI: > 100 µM
NCI-H226 lung
  GI50: 16.6 µM
  TGI: 35.1 µM
NCI-H23 lung
  GI50: 17.6 µM
  TGI: 35.2 µM
NCI-H460 lung
  GI50: 18.2 µM
  TGI: 38.6 µM
NCI-H522 lung
  GI50: 13.6 µM
  TGI: 26.7 µM
NCI/ADR-RES ovarian
  GI50: 17 µM
  TGI: 38 µM
OVCAR-3 ovarian
  GI50: 10.8 µM
  TGI: 26.6 µM
OVCAR-4 ovarian
  GI50: 13.5 µM
  TGI: 38.4 µM
OVCAR-5 ovarian
  GI50: 17.6 µM
  TGI: 31.9 µM
OVCAR-8 ovarian
  GI50: 12.8 µM
  TGI: 28.7 µM
PC-3 prostate
  GI50: 13.2 µM
  TGI: 39.6 µM
RPMI-8226 leukemia
  GI50: 3.11 µM
  TGI: 38.1 µM
RXF 393 renal
  GI50: 11.1 µM
  TGI: 24.9 µM
SF-268 CNS
  GI50: 27.9 µM
  TGI: > 100 µM
SF-295 CNS
  GI50: 25.9 µM
  TGI: > 100 µM
SF-539 CNS
  GI50: 14 µM
  TGI: 27 µM
SK-MEL-2 melanoma
  GI50: 14.6 µM
  TGI: 29 µM
SK-MEL-28 melanoma
  GI50: 15.7 µM
  TGI: 29.7 µM
SK-MEL-5 melanoma
  GI50: 15.8 µM
  TGI: 31.3 µM
SK-OV-3 ovarian
  GI50: 57.7 µM
  TGI: > 100 µM
SN12C renal
  GI50: 14.4 µM
  TGI: 30.6 µM
SNB-19 CNS
  GI50: 25.3 µM
  TGI: 84.2 µM
SNB-75 CNS
  GI50: 5.83 µM
  TGI: 49.6 µM
SW-620 colon
  GI50: 9.77 µM
  TGI: 23.8 µM
T-47D breast
  GI50: 18.6 µM
  TGI: 55.1 µM
TK-10 renal
  GI50: 25.9 µM
  TGI: 62.4 µM
U251 CNS
  GI50: 15.2 µM
  TGI: 28.6 µM
UACC-257 melanoma
  GI50: 15.5 µM
  TGI: 32.8 µM
UACC-62 melanoma
  GI50: 13.6 µM
  TGI: 28.8 µM
UO-31 renal
  GI50: 13.2 µM
  TGI: 26 µM

## COC(=O)c1c(C(=O)OC)c2ccc3c4ccccc4ccc3n2c1C(=O)C(C)Br (centres undefined)
786-0 renal
  GI50: 21.1 µM
  TGI: > 100 µM
A498 renal
  GI50: 88.1 µM
  TGI: > 100 µM
A549 NSCLC
  GI50: 42.2 µM
  TGI: > 100 µM
ACHN renal
  GI50: 22.2 µM
  TGI: > 100 µM
BT-549 breast
  GI50: 6.18 µM
  TGI: 40.2 µM
CAKI-1 renal
  GI50: 21.2 µM
  TGI: > 100 µM
CCRF-CEM leukemia
  GI50: 3.92 µM
  TGI: > 100 µM
COLO 205 colon
  GI50: 38.8 µM
  TGI: > 100 µM
DU-145 prostate
  GI50: > 100 µM
  TGI: > 100 µM
EKVX NSCLC
  GI50: 42.4 µM
  TGI: > 100 µM
HCC-2998 colon
  GI50: 39.9 µM
  TGI: > 100 µM
HCT-116 colon
  GI50: 11 µM
  TGI: > 100 µM
HCT-15 colon
  GI50: 6.17 µM
  TGI: 30.3 µM
HL-60(TB) leukemia
  GI50: 5.39 µM
  TGI: > 100 µM
HOP-62 NSCLC
  GI50: 33.1 µM
  TGI: > 100 µM
HOP-92 NSCLC
  GI50: 15.2 µM
  TGI: > 100 µM
HS 578T breast
  GI50: 18.8 µM
  TGI: 92.7 µM
HT29 colon
  GI50: 20.6 µM
  TGI: > 100 µM
IGROV1 ovarian
  GI50: 33.2 µM
  TGI: > 100 µM
K-562 leukemia
  GI50: 6.48 µM
  TGI: > 100 µM
KM12 colon
  GI50: > 100 µM
  TGI: > 100 µM
LOX IMVI melanoma
  GI50: 4.35 µM
  TGI: 23.7 µM
M14 melanoma
  GI50: 31.3 µM
  TGI: > 100 µM
MALME-3M melanoma
  GI50: 6.1 µM
  TGI: 43 µM
MCF7 breast
  GI50: 4.58 µM
  TGI: > 100 µM
MDA-MB-231 breast
  GI50: 4.72 µM
  TGI: 35.8 µM
MDA-MB-435
  GI50: 16.1 µM
  TGI: > 100 µM
MDA-MB-468 breast
  GI50: 13.2 µM
  TGI: 52.4 µM
MOLT-4 leukemia
  GI50: 3.3 µM
  TGI: > 100 µM
NCI-H226 lung
  GI50: 25.6 µM
  TGI: > 100 µM
NCI-H23 lung
  GI50: 12.9 µM
  TGI: > 100 µM
NCI-H460 lung
  GI50: 17.8 µM
  TGI: > 100 µM
NCI-H522 lung
  GI50: 3.07 µM
  TGI: 15.2 µM
NCI/ADR-RES ovarian
  GI50: 17.7 µM
  TGI: > 100 µM
OVCAR-3 ovarian
  GI50: 16.9 µM
  TGI: > 100 µM
OVCAR-4 ovarian
  GI50: 25.6 µM
  TGI: > 100 µM
OVCAR-5 ovarian
  GI50: 22.5 µM
  TGI: > 100 µM
OVCAR-8 ovarian
  GI50: 14.9 µM
  TGI: > 100 µM
PC-3 prostate
  GI50: 17.8 µM
  TGI: > 100 µM
RPMI-8226 leukemia
  GI50: 7.43 µM
  TGI: 48.1 µM
RXF 393 renal
  GI50: 2.79 µM
  TGI: 36.7 µM
SF-268 CNS
  GI50: 34.4 µM
  TGI: > 100 µM
SF-295 CNS
  GI50: 28.3 µM
  TGI: > 100 µM
SF-539 CNS
  GI50: 10.9 µM
  TGI: 25.6 µM
SK-MEL-2 melanoma
  GI50: 17.9 µM
  TGI: 94.1 µM
SK-MEL-28 melanoma
  GI50: 25.7 µM
  TGI: > 100 µM
SK-MEL-5 melanoma
  GI50: 13 µM
  TGI: 46.8 µM
SK-OV-3 ovarian
  GI50: > 100 µM
  TGI: > 100 µM
SN12C renal
  GI50: 17.2 µM
  TGI: > 100 µM
SNB-19 CNS
  GI50: 51.5 µM
  TGI: > 100 µM
SNB-75 CNS
  GI50: 24.7 µM
  TGI: > 100 µM
SR leukemia
  GI50: 5.87 µM
  TGI: > 100 µM
SW-620 colon
  GI50: 7.26 µM
  TGI: 58.3 µM
T-47D breast
  GI50: 11.5 µM
  TGI: > 100 µM
TK-10 renal
  GI50: 76.3 µM
  TGI: > 100 µM
U251 CNS
  GI50: 18.3 µM
  TGI: > 100 µM
UACC-257 melanoma
  GI50: 44.2 µM
  TGI: > 100 µM
UACC-62 melanoma
  GI50: 11.9 µM
  TGI: > 100 µM
UO-31 renal
  GI50: 24.9 µM
  TGI: > 100 µM
